Calls of active or inactive are those of the source. The calls are words filed in the database; no cut-off is given here.

The species named for one experiment is Rattus norvegicus. Put plainly: Inhibition of calcium-induced cardiac mitochondria swelling in Sprague-Dawley rat at 1 uM after 10 mins. It is filed as functional. The conditions noted are these: Heart.
A short description of experiment [1]: Reduction of ouabain-induced mitochondrial calcium flux in Sprague-Dawley rat cardiomyocytes at 10 uM after 15 mins by Rhod 2AM staining relative to control. It is filed as functional, Cardiac muscle cell. Also on record: scale not given: the % may be the effect or the level left. Background: A change in cytosolic calcium serves as a functional read-out for many receptors and channels.

Experiment [2] in a line: Cardioprotective activity in Sprague-Dawley rat cardiomyocytes assessed as reduction of hypoxia/reoxygenation-induced mitochondrial calcium flux at 10 uM after 15 mins by Rhod 2AM staining relative to control. Also noted: scale not given: the % may be the effect or the level left. As to conditions: Cardiac muscle cell. It is filed as functional, cell-based.
The nature of experiment [3]: Cardioprotective activity in Sprague-Dawley rat cardiomyocytes assessed as reduction of hypoxia/reoxygenation-induced mitochondrial superoxide level at 10 uM after 15 mins by MitoSOX red staining relative to control. The format is functional, cell-based. The conditions noted are these: Cardiac muscle cell. Also noted: scale not given: the % may be the effect or the level left.

Experiment [4] in a line: Cardioprotective activity in Sprague-Dawley rat cardiomyocytes assessed as prevention of hypoxia/reoxygenation-induced collapse of state 3 respiration in presence of 100 uM ADP. The conditions noted are these: Cardiac muscle cell. It is filed as functional, cell-based.
A further experiment deals with Heart. The experiment is described as follows: Cardioprotective activity in Sprague-Dawley rat heart assessed as reduction of hypoxia/reoxygenation-induced infarct size at 10 uM treated 30 mins before reoxygenation by triphenyltetrazolium chloride staining (reference value: 42.10 +/- 7.36%). It is filed as functional. Also on record: scale not given: the % may be the effect or the level left.

Take `Oc1ccc(-c2ccc3cc(O)ccc3c2)c(O)c1`: the inhibition entry in the experiment listed under Rattus norvegicus was “Active”. Besides, the Activity in experiment [1] stood at 111.82%; in experiment [2], 168%; in experiment [3], 98.1%; in the experiment on Heart, 3.92%. In addition, the result in experiment [4] was Active.

Source of the values: ChEMBL document CHEMBL2401629, “HS-1793, a recently developed resveratrol analogue protects rat heart against hypoxia/reoxygenation injury via attenuating mitochondrial damage” (2013).
